In ChEMBL document CHEMBL5674872, “JMJD3 aids in reprogramming of bone marrow progenitor cells to hepatic phenotype through epigenetic activation of hepatic transcription factors” (PLoS One, 2017):
Active and inactive are the calls of the source.

What was measured:
Conditions in all cases: time 14.0 day
[1] = target: Lysine-specific demethylase 6B (Mus musculus) (UniProt Q5NCY0); test: Inhibition of JMJD3 expression in Bl6/J female eGFP-expressing mouse Lin-BM cells assessed as H3K27me3 enrichments level at promoters of HNF1-alpha at 100 nM incubated for 14 days by ChIP-qPCR method; assay type: cell-based
[2] = target: Lysine-specific demethylase 6B (Mus musculus) (UniProt Q5NCY0); test: Inhibition of JMJD3 expression in Bl6/J female eGFP-expressing mouse Lin-BM cells assessed as H3K27me3 enrichments level at promoters of GATA4 at 100 nM incubated for 14 days by ChIP-qPCR method; assay type: cell-based
[3] = target: Lysine-specific demethylase 6B (Mus musculus) (UniProt Q5NCY0); test: Inhibition of JMJD3 expression in Bl6/J female eGFP-expressing mouse Lin-BM cells assessed as H3K27me3 enrichments level at promoters of HNF4-alpha at 100 nM incubated for 14 days by ChIP-qPCR method; assay type: cell-based
[4] = target: Lysine-specific demethylase 6B (Mus musculus) (UniProt Q5NCY0); test: Inhibition of JMJD3 expression in Bl6/J female eGFP-expressing mouse Lin-BM cells assessed as prevention of loss of H3K27me3 chromatin mark at 100 nM incubated for 14 days by immuno-cytochemical analysis; assay type: cell-based
[5] = target: Lysine-specific demethylase 6B (Mus musculus) (UniProt Q5NCY0); test: Inhibition of JMJD3 expression in Bl6/J female eGFP-expressing mouse Lin-BM cells assessed as H3K27me3 enrichments level at promoters of HNF3-beta at 100 nM incubated for 14 days by ChIP-qPCR method; assay type: cell-based
[6] = target: Lysine-specific demethylase 6B (Mus musculus) (UniProt Q5NCY0); test: Inhibition of JMJD3 expression in Bl6/J female eGFP-expressing mouse Lin-BM cells assessed as H3K27me3 enrichments level at promoters of CEBP-alpha at 100 nM incubated for 14 days by ChIP-qPCR method; assay type: cell-based
[7] = target: Lysine-specific demethylase 6B (Mus musculus) (UniProt Q5NCY0); test: Inhibition of JMJD3 expression in Bl6/J female eGFP-expressing mouse Lin-BM cells assessed as reduction in hepatic differentiation at 100 nM incubated for 14 days by immuno-cytochemistry analysis; assay type: cell-based
[8] = target: Lysine-specific demethylase 6B (Mus musculus) (UniProt Q5NCY0); test: Inhibition of JMJD3 expression in Bl6/J female eGFP-expressing mouse Lin-BM cells assessed as H3K27me3 enrichments level at promoters of HNF3-alpha at 100 nM incubated for 14 days by ChIP-qPCR method; assay type: cell-based
[9] = system: Lin-BM; test: Inhibition of JMJD3 expression in Bl6/J female eGFP-expressing mouse Lin-BM cells at 100 nM incubated for 14 days by immuno-cytochemistry analysis; assay type: functional, cell-based

Measured: inhibition

Sequence of Lysine-specific demethylase 6B (Mus musculus) (Q5NCY0 whole entry): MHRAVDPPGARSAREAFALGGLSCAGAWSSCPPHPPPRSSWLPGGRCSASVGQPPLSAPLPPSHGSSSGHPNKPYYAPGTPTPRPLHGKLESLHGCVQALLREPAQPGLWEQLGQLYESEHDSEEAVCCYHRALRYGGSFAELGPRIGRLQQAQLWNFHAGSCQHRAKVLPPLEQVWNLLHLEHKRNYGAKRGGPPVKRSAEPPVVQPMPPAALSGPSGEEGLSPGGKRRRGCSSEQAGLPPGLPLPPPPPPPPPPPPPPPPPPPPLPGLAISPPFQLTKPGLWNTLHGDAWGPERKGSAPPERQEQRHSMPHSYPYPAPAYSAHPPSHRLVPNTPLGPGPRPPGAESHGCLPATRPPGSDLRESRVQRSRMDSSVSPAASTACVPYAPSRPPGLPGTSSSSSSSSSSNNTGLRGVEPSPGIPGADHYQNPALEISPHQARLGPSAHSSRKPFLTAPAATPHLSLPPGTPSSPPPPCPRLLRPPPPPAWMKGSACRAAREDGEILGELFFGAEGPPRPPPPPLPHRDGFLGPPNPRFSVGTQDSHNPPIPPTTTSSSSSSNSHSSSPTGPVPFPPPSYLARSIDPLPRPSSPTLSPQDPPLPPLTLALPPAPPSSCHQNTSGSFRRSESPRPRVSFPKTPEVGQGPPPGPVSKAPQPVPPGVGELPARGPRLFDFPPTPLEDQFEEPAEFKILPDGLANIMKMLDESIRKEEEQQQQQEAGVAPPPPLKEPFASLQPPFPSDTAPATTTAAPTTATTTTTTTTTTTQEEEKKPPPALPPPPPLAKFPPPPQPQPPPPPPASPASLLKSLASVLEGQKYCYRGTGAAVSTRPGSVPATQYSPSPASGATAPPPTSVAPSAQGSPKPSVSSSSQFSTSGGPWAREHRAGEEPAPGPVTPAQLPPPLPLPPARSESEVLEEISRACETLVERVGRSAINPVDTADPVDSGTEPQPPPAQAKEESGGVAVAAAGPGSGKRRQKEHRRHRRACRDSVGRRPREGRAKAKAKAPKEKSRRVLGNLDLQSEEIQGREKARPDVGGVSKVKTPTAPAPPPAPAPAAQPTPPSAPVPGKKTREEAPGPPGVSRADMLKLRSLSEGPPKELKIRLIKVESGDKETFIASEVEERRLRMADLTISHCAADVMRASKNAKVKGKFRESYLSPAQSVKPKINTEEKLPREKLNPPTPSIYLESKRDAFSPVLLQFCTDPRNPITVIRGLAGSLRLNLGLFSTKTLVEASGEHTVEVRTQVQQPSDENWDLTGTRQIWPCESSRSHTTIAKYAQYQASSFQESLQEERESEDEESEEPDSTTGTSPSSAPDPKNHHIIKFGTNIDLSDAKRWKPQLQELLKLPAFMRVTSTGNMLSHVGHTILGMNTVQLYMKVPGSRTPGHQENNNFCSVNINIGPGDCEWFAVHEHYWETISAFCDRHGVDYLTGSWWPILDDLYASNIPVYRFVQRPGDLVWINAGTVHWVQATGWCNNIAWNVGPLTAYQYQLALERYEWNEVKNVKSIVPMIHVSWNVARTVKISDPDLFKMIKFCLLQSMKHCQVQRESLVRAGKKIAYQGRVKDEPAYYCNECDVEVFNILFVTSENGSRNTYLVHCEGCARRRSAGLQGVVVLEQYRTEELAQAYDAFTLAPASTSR

CCOC(=O)CCNc1cc(N2CCc3ccccc3CC2)nc(-c2ccccn2)n1
active: [1] | [2] | [3] | [4] | [5] | [6] | [7] | [8] | [9]
